This note sets out measurements from patent publication US20090054414A1, “Rufinamide for the Treatment of Post-Traumatic Stress Disorder” (SYNOSIA THERAPEUTICS, priority 2007, published 2009).

One assay relates to Male OF1/IC mice. Description: modified stress-induced hyperthermia (SIH) test. Type of assay: in vivo, mouse. On the procedure: Rufinamide was tested in the modified stress-induced model of anxiety. The stress-induced hyperthermia test in mice is a paradigm developed several years ago to model the expression of autonomic hyperactivity in anxiety (Lecci A, Borsini F, Volterra G, Meli A. (1990) Pharmacological validation of a novel model of anticipatory anxiety in mice. Psychopharmacology; 101:255-61.; Spooren W P, Schoeffter P, Gasparini F, Kuhn R, Gentsch C. (2002) Pharmacological and endocrinological characterisation of stress-induced hyperthermia in singly housed mice using classical and candidate anxiolytics (LY314582, MPEP and NKP608). Eur J Pharmacol; 435:161-70.;Zethof T J J, van der Heyden J A M, Tolboom J B M, Olivier B (1994) Stress-induced hyperthermia in mice: a methodological study. Phys. Behav. 55:109-115.). […] Pharmacol Biochem Behav 72:179-188.
Male OF1/IC mice (MA205 Tiger code) were obtained several days prior to behavioural testing from Iffa Credo (L'Arbresle, France; 18-20 g) and housed in groups of 15 animals per cage (macrolon cages 42H26H15 cm, Type 4). The animals were individually housed (macrolon cage: 26H21H14 cm, Type 2) 24 h before testing. The day preceding the experiment, all cages were transferred to the testing room—and background noise (radio) was used during the light cycle. Both the animal room and the laboratory were temperature controlled and equipped with artificial illumination (L12:D12; lights on 06:00). Mice always had ad libitum access to water and food (Ecosan, Eberle Nafag A G, Gossau, Schweiz).
The test procedure for the modified stress-induced hyperthermia was adapted from van der Heyden et al. (1997). Rectal temperature was measured in each mouse twice, i.e. at t=0 min (T1) and t=+15 min (T2). The difference in temperature (T2-T1) was considered to reflect the stress-induced hyperthermia (SIH). […] In addition, a comparison between T1 in vehicle-treated mice and in animals treated with a given dose of a test-compound was used, to measure whether a test-compound affected body temperature alone.
Rectal temperature was measured to the nearest 0.1° C. by an ELLAB instruments (Copenhagen, Denmark) thermometer Model DM 852 by inserting a lubricated thermistor probe model PRA-22002-A (ELLAB, Copenhagen, Denmark) (2.2 mm diameter) 20 mm into the rectum; the mouse was hand held at the base of the tail during this determination and the thermistor probe was left in place for 15 s.
All drugs were made up fresh and dissolved in vehicle (0.5% methylcellulose) and administered per os (p.o.) in a volume of 10 ml/kg.
All data was analysed using a one-way analysis of variance (ANOVA) followed where appropriate by Dunnett test of multiple comparisons. The level of significance was set at p<0.05.

The subject of assay [1] is Male Rj: Wistar (Han) rats. Description: Vogel Conflict Test in the rat. Type of assay: in vivo. The note with it: for number of shocks received (punished drinking), change vs vehicle control: 60 minutes before the test. On the procedure: Rufinamide was dispersed in 0.5% methylcellulose (MC) in distilled water. Vehicle was dispersed in 0.5% MC in distilled water. Clobazam was dispersed in 0.5% MC in distilled water. Methylcellulose (Sigma), batch n° 62K0144, white powder. Distilled water (Laboratoire Aguettant, sterile water for injectable preparation). All substances were stored in a dry, dark, controlled access area and maintained at a controlled ambient temperature (+18° C.). The vehicle suspensions were stored at +4° C.
The vehicle, test substance and reference substance were administered in a volume of 5 ml/kg body weight.
Male Rj: Wistar (Han) rats, 171-205 g body weight range were used. They were supplied by Elevage Janvier, 53940 Le Genest-Saint-Isle, France.
Animals were delivered to the laboratory at least 5 days before the experiment, during which time they were acclimatized to the laboratory conditions. They were housed in groups of 5 in macrolon cages (41×25×14 cm) on wood litter (Litalabo—SPPS, 95100 Argenteuil, France) with free access to food (Code 113-SAFE, 91360 Epinay-sur-Orge, France) and water until
Results in grouped data tables are presented as means followed by a ± sign and the standard error of the mean (s.e.m.) on the basis of 15 animals per group and as percent change from control. The statistical tests used are indicated with the method. All statistical calculations were performed using commercial software (Microsoft Excel®, GB Stat version 6.5), and verified test by test according to Porsolt & Partners Pharmacology's standardized internal procedures. All differences were considered statistically significant when the null hypothesis could be rejected at the risk α=0.05 or less.
Rats were deprived of water for 48 hours and were then placed individually into a transparent Plexiglas enclosure (15×32×34 cm) with a floor consisting of stainless steel bars (0.4 cm) spaced 1 cm apart. The back wall of the enclosure was made of opaque Plexiglass thereby concealing the observer from the experimental animal. In the centre of the opposite wall, 5 cm above the floor, a metal water spout protruded into the cage and was connected to one pole of a shock generator (Apelex: Type 011346). The other pole of the shock generator was connected to the metal grid floor.
The rat was left to explore until it found the water spout. Then, every time it drank, it received a slight electric shock (1.7 mA, 1 sec.) 2 seconds after it started lapping. The number of shocks received (punished drinkings) was counted during a 3 minute period.
15 rats were studied per group. The test was performed blind.
rufinamide was evaluated at 25, 50, 100 and 200 mg/kg, administered p.o. 60 minutes before the test, and compared with a vehicle control group.
Clobazam (64 mg/kg), administered under the same experimental conditions, was used as reference substance.
Data were analyzed by comparing treated groups with vehicle control using unpaired Student's t tests.

Take `NC(=O)c1cn(Cc2c(F)cccc2F)nn1` [rufinamide, 1-(2,6-difluorobenzyl)-1H-1,2,3-triazole-4-carboxamide]: the “body temperature T2 (15 min after stress)” value in the assay on Male OF1/IC mice (first experiment, rufinamide 100 mg/kg p.o., p<0.001) is on record as “significant lower body temperature than control animals”; with Male OF1/IC mice (pooled data, rufinamide 25, 50, 100, 200 and 300 mg/kg), “significant lower body temperature than control animals”; in the assay with Male OF1/IC mice (second experiment, rufinamide at the highest doses (30 and 100 mg/kg, p.o.)) it was “significant lower body temperature than control animals”; in the assay with Male OF1/IC mice (third experiment, rufinamide 100 and 200 mg/kg p.o.), “significant lower body temperature than control animals”. The “SIH response (T2-T1)” value in the assay on Male OF1/IC mice (first experiment, rufinamide 3, 10, 30, 100 mg/kg p.o., 60 min before T1, n=12) is reported as “only the positive control CDZ (10 mg/kg, p.o.) reversed significantly”; with Male OF1/IC mice (pooled data of all 3 experiments, rufinamide 30, 50, 100, 200 and 300 mg/kg p.o.), “significantly attenuated”; in the assay on Male OF1/IC mice (second experiment (0.3, 3, 30, 300 mg/kg tested), rufinamide 0.3, 30 and 300 mg/kg p.o. (p<0.05, p<0.01, p<0.001)) it was “significantly attenuated”; in the assay with Male OF1/IC mice (third experiment (25, 50, 100, 200 mg/kg tested), rufinamide 50 (p<0.05), 100 and 200 mg/kg p.o. (p<0.001)) it was “significantly reduced”. The “dose eliciting a robust reversal of the physiological response to an acute stressor” value in the assay with Male OF1/IC mice (p.o.) is listed as above 30 mg/kg. In the assay on Male OF1/IC mice (p.o.), the “doses needed to induce robust anxiolytic-like effects in the SIH paradigm” value is 100 to 300 mg/kg. In addition, the “number of shocks received (punished drinking), change vs vehicle control” value in assay [1] (25 mg/kg p.o., 3 minute period, 15 rats) is “+31%”; in assay [1] (50 mg/kg p.o., p<0.05), “+40%”; in assay [1] (100 mg/kg p.o.) it was “+55%”; in assay [1] (200 mg/kg p.o.) it was “+83%”. Besides, in assay [1] (p.o.), the “dose-range of anxiolytic-like activity” value was 25 to 200 mg/kg. In addition, the “dose from which the increase in shocks received is significant” value in assay [1] (p.o., p<0.05) is given as at least 50 mg/kg.
